Experimental data published in US20110306635A1, “PYRIDINE COMPOUNDS AS SUBTYPE SELECTIVE MODULATORS OF ALPHA2B AND /OR ALPHA 2C […]” (ALLERGAN ,INC., priority 2009, published 2011).

Assays:
Format in all cases: cell-based
[1] = molecular target: T1, alpha 2A adrenergic receptor (Homo sapiens, UniProt P08913); experiment: RSAT (Receptor Selection and Amplification Technology) assay, alpha 2A; conditions: cells expressing alpha 2A receptor alone; receptor-mediated growth response
T1 construct: expressed in transfected cells
T1 sequence (P08913 1-465): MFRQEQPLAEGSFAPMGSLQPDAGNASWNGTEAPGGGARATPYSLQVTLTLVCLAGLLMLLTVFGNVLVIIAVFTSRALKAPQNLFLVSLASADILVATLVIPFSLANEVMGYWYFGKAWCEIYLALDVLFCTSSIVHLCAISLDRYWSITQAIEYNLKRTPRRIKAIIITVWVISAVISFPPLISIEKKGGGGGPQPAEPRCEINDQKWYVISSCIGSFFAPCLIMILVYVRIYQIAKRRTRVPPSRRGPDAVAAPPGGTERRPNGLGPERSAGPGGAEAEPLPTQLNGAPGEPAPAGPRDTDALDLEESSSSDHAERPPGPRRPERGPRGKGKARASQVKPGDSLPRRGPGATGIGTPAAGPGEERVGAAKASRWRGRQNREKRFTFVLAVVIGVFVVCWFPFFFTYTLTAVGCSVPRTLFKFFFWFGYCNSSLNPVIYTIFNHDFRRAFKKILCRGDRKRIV
Experimental: (§1) The compounds were synthesized and tested for alpha adrenergic activity using the Receptor Selection and Amplification Technology (RSAT) assay (Messier et. al., 1995, Pharmacol. Toxicol. 76, pp. 308-311). Cells expressing each of the alpha-2 adrenergic receptors alone were incubated with the Compound 1 and a receptor-mediated growth response was measured. A compound's activity is expressed as its relative efficacy compared to a standard full agonist (see table). Compound of this invention activates alpha-2B and alpha-2C receptors.
(§2) The results of the RSAT assay with several exemplary compounds of the invention are disclosed in Table 1 below together with the chemical formulas of these exemplary compounds. EC50 values are nanomolar.

[2] = molecular target: T2, alpha 2B adrenergic receptor (Homo sapiens, UniProt P18089); experiment: RSAT (Receptor Selection and Amplification Technology) assay, alpha 2B; conditions: for EC50: cells expressing alpha 2B receptor alone, receptor-mediated growth response; for RSAT efficacy, Alpha 2B: relative efficacy compared to a standard full agonist (value in parentheses)
T2 construct: expressed in transfected cells
T2 sequence (P18089 1-450): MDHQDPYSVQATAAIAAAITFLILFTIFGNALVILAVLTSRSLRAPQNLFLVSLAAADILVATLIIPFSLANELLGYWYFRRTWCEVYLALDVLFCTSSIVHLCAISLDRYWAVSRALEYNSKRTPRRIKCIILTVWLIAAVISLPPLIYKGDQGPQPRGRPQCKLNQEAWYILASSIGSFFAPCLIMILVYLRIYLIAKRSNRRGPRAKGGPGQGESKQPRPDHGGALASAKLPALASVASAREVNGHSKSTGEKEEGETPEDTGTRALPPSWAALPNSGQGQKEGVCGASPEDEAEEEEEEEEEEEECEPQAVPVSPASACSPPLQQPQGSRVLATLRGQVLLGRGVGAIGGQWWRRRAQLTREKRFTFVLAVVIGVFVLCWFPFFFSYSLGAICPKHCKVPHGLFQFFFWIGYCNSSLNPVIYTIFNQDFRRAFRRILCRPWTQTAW
Experimental: as §1, §2

[3] = molecular target: T3, alpha 2C adrenergic receptor (Homo sapiens, UniProt P18825); experiment: RSAT (Receptor Selection and Amplification Technology) assay, alpha 2C; conditions: for EC50: cells expressing alpha 2C receptor alone, receptor-mediated growth response; for RSAT efficacy, Alpha 2C: relative efficacy compared to a standard full agonist (value in parentheses)
T3 construct: expressed in transfected cells
T3 sequence (P18825 1-462): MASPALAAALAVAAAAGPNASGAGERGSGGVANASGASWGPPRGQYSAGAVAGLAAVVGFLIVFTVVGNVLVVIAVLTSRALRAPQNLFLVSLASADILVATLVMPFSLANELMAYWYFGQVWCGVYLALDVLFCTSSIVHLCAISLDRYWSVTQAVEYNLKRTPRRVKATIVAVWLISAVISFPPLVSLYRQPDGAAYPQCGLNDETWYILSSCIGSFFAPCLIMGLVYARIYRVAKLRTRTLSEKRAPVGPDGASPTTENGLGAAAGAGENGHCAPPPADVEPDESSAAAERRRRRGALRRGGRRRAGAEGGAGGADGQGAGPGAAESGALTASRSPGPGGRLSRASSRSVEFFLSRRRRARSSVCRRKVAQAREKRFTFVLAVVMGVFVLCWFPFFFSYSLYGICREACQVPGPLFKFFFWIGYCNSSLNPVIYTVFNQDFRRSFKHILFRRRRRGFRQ
Experimental: as §1, §2

Compound	RSAT EC50 (nM); efficacy, Alpha 2A [1]	EC50 [2] [nM]	RSAT efficacy, Alpha 2B [2]	EC50 [3] [nM]	RSAT efficacy, Alpha 2C [3]
Cc1nccc(C(C)c2c[nH]cn2)c1C (stereo not shown) [4-(1-(1H-imidazol-4-yl)ethyl)-2,3-dimethylpyridine]	Not active	16.7	0.99	1290	0.35
CC(c1c[nH]cn1)c1ccnc2c1CCCC2 (stereo not shown) [4-(1-(1H-imidazol-4-yl)ethyl)-5,6,7,8-tetrahydroquinoline]	Not active	23.5	1.12	370	0.35
